US20140011799A1 (Bristol-Myers Squibb Company, priority 2012, published 2014)

How the values were obtained:
[1] = target: T1, Endothelial lipase (EL) (Homo sapiens, UniProt Q9Y5X9); assay: Endothelial lipase (EL) enzymatic assay, fluorescent substrate A10070 in DMPG vesicles; assay type: biochemical; conditions: EL from conditioned media of HT-1080 cells; compound preincubated 30 min at 37° C; read-out: EL IC50
T1 construct: HT-1080 cells that were transformed using RAGE technology (Athersys) to overexpress endogenous EL; endogenous in cells; conditioned medium used
T1 sequence (Q9Y5X9 21-500): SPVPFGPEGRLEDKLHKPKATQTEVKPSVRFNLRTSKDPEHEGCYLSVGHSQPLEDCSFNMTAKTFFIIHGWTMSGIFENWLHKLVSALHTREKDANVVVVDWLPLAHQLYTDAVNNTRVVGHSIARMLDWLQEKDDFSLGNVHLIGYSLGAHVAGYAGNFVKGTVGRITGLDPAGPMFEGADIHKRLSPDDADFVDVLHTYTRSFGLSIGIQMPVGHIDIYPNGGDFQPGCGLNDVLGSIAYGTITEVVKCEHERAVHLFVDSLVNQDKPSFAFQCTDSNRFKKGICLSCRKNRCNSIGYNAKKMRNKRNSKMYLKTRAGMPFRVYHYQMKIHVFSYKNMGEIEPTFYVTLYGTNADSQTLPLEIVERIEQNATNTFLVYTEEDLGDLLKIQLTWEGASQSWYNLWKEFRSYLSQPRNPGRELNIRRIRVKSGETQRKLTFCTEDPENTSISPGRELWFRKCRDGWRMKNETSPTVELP
Summary of the method: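 EL from conditioned medium of HT-1080 cells engineered to overexpress endogenous EL; HL partially purified from conditioned medium of HL-overexpressing COS cells. Enzyme preincubated with compound 30 min at 37° C in 50 mM HEPES pH 8.0, 50 mM NaCl, 1 mM CaCl2; DMPG vesicles carrying FRET substrate (0.11 mole fraction) then added.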

[2] = target: T2, hepatic lipase (HL) (Homo sapiens, UniProt P11150); assay: Hepatic lipase (HL) enzymatic assay, fluorescent substrate A10070 in DMPG vesicles; assay type: biochemical; conditions: HL partially purified from conditioned media of COS cells; compound preincubated 30 min at 37° C; read-out: HL IC50
T2 construct: made in house; host or cells: COS cells (conditioned medium, partially purified)
T2 sequence (P11150 23-499): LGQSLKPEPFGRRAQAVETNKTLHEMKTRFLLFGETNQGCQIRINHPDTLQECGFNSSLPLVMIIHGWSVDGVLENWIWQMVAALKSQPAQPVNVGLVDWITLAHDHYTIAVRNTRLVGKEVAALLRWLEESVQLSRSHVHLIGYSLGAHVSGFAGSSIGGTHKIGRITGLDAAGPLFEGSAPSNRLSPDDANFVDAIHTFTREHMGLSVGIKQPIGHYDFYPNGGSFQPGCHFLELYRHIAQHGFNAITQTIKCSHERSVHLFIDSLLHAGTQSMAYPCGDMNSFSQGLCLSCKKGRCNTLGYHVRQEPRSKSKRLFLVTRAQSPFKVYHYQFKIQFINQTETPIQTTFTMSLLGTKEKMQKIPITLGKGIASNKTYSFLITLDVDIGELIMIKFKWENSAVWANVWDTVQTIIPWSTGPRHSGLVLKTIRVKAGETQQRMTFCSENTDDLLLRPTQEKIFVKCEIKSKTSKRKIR
Method: Endothelial lipase (EL) and hepatic lipase (HL) activities were measured using a fluorescent substrate, A10070, (Invitrogen, CA) doped into an artificial vesicle containing DMPG (Avanti Polar Lipids) as the excipient. Vesicles were prepared by combining 571 μL of 29 mM DMPG in a 1:1 mixture of MeOH and CHCl3 with 2000 μL of 1 mM A10070 in a 1:1 mixture of MeOH and CHCl3. The mixture was dried under nitrogen in multiple vials then resuspended in 20 mL total volume of 50 mM HEPES pH 8.0 buffer containing 50 mM NaCl and 0.2 mM EDTA. The sample was allowed to sit at room temperature for 15 min and then was sonicated 3×4 mins on ice with a Branson Sonicator using duty cycle 1. This preparation provides vesicles with a mole fraction of 0.11 for the FRET substrate.
The enzymatic assay was measured using 384-well white Optiplates. Each well contained 20 μL of assay buffer (50 mM HEPES pH 8.0, 50 mM NaCl and 1 mM CaCl2) and 0.25 μL of a DMSO solution containing a compound of interest. EL or HL (10 μL) was added and allowed to incubate with the compound for 30 min at 37° C. The source of EL was conditioned media obtained from HT-1080 cells that were transformed using RAGE technology (Athersys) to overexpress endogenous EL, and HL was partially purified from conditioned media obtained from COS cells overexpressing HL. The reaction was started by the addition of 10 μL of a 1:10 dilution of vesicles. The final total reaction volume was […]. The reaction rates were measured on a Gemini plate reader with an excitation wavelength of 490 nm and an emission wavelength of 530 nm. Readings were taken over a period of 60 minutes, and the slope between 300 and 900 secs of the readout was used to calculate the rate of the reaction.

| Compound | IC50 [1] [nM] | IC50 [2] [nM] |
| --- | --- | --- |
| CC(C)(C)OC(=O)NS(=O)(=O)NCc1nnc(C(c2nc3ccc(-c4ccc(Cl)cc4)cc3s2)S(=O)(=O)Cc2ccccc2)o1 (stereo not shown) [Example 123, tert-butyl (((5-((benzylsulfonyl)(6-(4-chlorophenyl)-1,3-benzothiazol-2-yl)methyl)-1,3,4-oxadiazol-2-yl)methyl)sulfamoyl)carbamate] | < 10 | < 10 |
| CS(=O)(=O)NCc1nnc(C(c2nc3ccc(-c4ccc(F)nc4)cc3s2)S(C)(=O)=O)o1 (stereo not shown) [Example 172, N-((5-((6-(6-Fluoro-3-pyridinyl)-1,3-benzothiazol-2-yl)(methylsulfonyl)methyl)-1,3,4-oxadiazol-2-yl)methyl)methanesulfonamide] | 240 | 32 |
| CC(C)Cn1cc(-c2cc(F)c3nc(C(c4nnc(CC5SC(=O)NC5=O)o4)S(=O)(=O)Cc4ccccc4)sc3c2)cn1 (stereo not shown) [Example 165, 5-((5-((benzylsulfonyl)(4-fluoro-6-(1-isobutyl-1H-pyrazol-4-yl)-1,3-benzothiazol-2-yl)methyl)-1,3,4-oxadiazol-2-yl)methyl)-1,3-thiazolidine-2,4-dione] | < 10 | 24 |
| COCc1ccc(-c2ccc3nc(C(c4nnc(CNS(N)(=O)=O)o4)S(=O)(=O)Cc4cccc(F)c4)sc3c2)cc1 (stereo not shown) [Example 241, N-({5-[(3-fluorophenyl)methanesulfonyl({6-[4-(methoxymethyl)phenyl]-1,3-benzothiazol-2-yl})methyl]-1,3,4-oxadiazol-2-yl}methyl)aminosulfonamide] | 1 | 1 |
| NS(=O)(=O)NCc1nnc(C(c2nc3ccc(-c4ccc(F)c(Cl)c4)cc3s2)S(=O)(=O)Cc2ccccc2)o1 (stereo not shown) [Example 139, N-((5-((benzylsulfonyl)(6-(3-chloro-4-fluorophenyl)-1,3-benzothiazol-2-yl)methyl)-1,3,4-oxadiazol-2-yl)methyl) sulfamide] | < 10 | < 10 |
| COCCS(=O)(=O)C(c1nnc(CNS(=O)(=O)NC(=O)OC(C)(C)C)o1)c1nc2ccc(-c3cnn(C)c3)cc2s1 (stereo not shown) [Example 115, tert-butyl (((5-(((2-methoxyethyl)sulfonyl)(6-(1-methyl-1H-pyrazol-4-yl)-1,3-benzothiazol-2-yl)methyl)-1,3,4-oxadiazol-2-yl)methyl)sulfamoyl)carbamate] | 117 | > 25000 |
| CCOCC(=O)NCc1nnc(C(c2nc3ccc(-c4ccccc4)cc3s2)S(C)(=O)=O)o1 (stereo not shown) [Example 157, 2-ethoxy-N-((5-((methylsulfonyl)(6-phenyl-1,3-benzothiazol-2-yl)methyl)-1,3,4-oxadiazol-2-yl)methyl)acetamide] | 223 | 34 |
| COCCS(=O)(=O)C(c1nnc(CNS(=O)(=O)NC(=O)OC(C)(C)C)o1)c1nc2ccc(-c3cc(F)cc(Cl)c3)cc2s1 (stereo not shown) [Example 153, tert-butyl (((5-((6-(3-chloro-5-fluorophenyl)-1,3-benzothiazol-2-yl)((2-methoxyethyl)sulfonyl)methyl)-1,3,4-oxadiazol-2-yl)methyl)sulfamoyl) carbamate] | 19 | 17 |
| NS(=O)(=O)NCc1nnc(C(c2nc3ccc(-c4cccc(C(=O)NCC(F)(F)F)c4)cc3s2)S(=O)(=O)CCC(F)(F)F)o1 (stereo not shown) [Example 195, 3-(2-((5-((sulfamoylamino)methyl)-1,3,4-oxadiazol-2-yl)((3,3,3-trifluoropropyl)sulfonyl)methyl)-1,3-benzothiazol-6-yl)-N-(2,2,2-trifluoroethyl)benzamide] | < 10 | 336 |
| CC(C)(C)OC(=O)NS(=O)(=O)NCc1nnc(C(c2nc3ccc(-c4cncnc4)cc3s2)S(=O)(=O)Cc2ccccc2)o1 (stereo not shown) [Example 121, tert-butyl (((5-((benzylsulfonyl)(6-(5-pyrimidinyl)-1,3-benzothiazol-2-yl)methyl)-1,3,4-oxadiazol-2-yl)methyl)sulfamoyl)carbamate] | 147 | 6550 |
| CC(C)(C)OC(=O)NS(=O)(=O)NCc1nnc(C(c2nc3ccc(-c4ccc(C(=O)N5CCOCC5)c(Cl)c4)cc3s2)S(=O)(=O)Cc2ccccc2)o1 (stereo not shown) [Example 147, 2-methyl-2-propanyl [({5-[(benzylsulfonyl){6-[3-chloro-4-(4-morpholinylcarbonyl)phenyl]-1,3-benzothiazol-2-yl}methyl]-1,3,4-oxadiazol-2-yl}methyl)sulfamoyl] carbamate] | 17 | 626 |
| CS(=O)(=O)C(c1nnc(CNS(N)(=O)=O)o1)c1nc2ccc(-c3cccc(C(=O)NC4CCC4)c3)cc2s1 (stereo not shown) [Example 261, N-cyclobutyl-3-{2-[methanesulfonyl({5-[(sulfamoylamino)methyl]-1,3,4-oxadiazol-2-yl})methyl]-1,3-benzothiazol-6-yl}benzamide] | 3 | 5 |
| O=C1NC(=O)C(Cc2nnc(C(c3nc4ccc(-c5ccccc5)c(F)c4s3)S(=O)(=O)Cc3ccccc3)o2)S1 (stereo not shown) [Example 162, 5-((5-((benzylsulfonyl)(7-fluoro-6-phenyl-1,3-benzothiazol-2-yl)methyl)-1,3,4-oxadiazol-2-yl)methyl)-1,3-thiazolidine-2,4-dione] | < 10 | < 10 |
| COCc1ccc(-c2ccc3nc(C(c4nnc(CNS(N)(=O)=O)o4)S(=O)(=O)Cc4ccc(F)cc4)sc3c2)cc1 (stereo not shown) [Example 242, N-({5-[(4-fluorophenyl)methanesulfonyl ({6-[4-(methoxymethyl)phenyl]-1,3-benzothiazol-2-yl})methyl]-1,3,4-oxadiazol-2-yl}methyl) aminosulfonamide] | 1 | 1 |
| COc1cc(-c2ccc3nc(C(c4nnc(CNS(N)(=O)=O)o4)S(C)(=O)=O)sc3c2)ccn1 (stereo not shown) [Example 131, N-((5-((6-(2-methoxy-4-pyridinyl)-1,3-benzothiazol-2-yl)(methylsulfonyl)methyl)-1,3,4-oxadiazol-2-yl)methyl)sulfamide] | < 10 | 102 |
| CC(O)CNC(=O)Cc1nnc(C(c2nc3ccc(-c4ccc(C(=O)N5CCOCC5)cc4)cc3s2)S(=O)(=O)Cc2ccccc2)o1 (stereo not shown) [Example 179, 2-(5-((benzylsulfonyl)(6-(4-(4-morpholinylcarbonyl)phenyl)-1,3-benzothiazol-2-yl)methyl)-1,3,4-oxadiazol-2-yl)-N-(2-hydroxypropyl) acetamide] | < 10 | 518 |
| CC(C)(C)OC(=O)Cc1nnc(C(c2nc3ccc(-c4ccc(C(=O)N5CCOCC5)cc4)cc3s2)S(C)(=O)=O)o1 (stereo not shown) [Example 107, tert-butyl (5-((methylsulfonyl)(6-(4-(4-morpholinylcarbonyl)phenyl)-1,3-benzothiazol-2-yl)methyl)-1,3,4-oxadiazol-2-yl)acetate] | 28 | 13 |
